Reference: US11124483B2, “HER3 ligands and uses thereof” (THE REGENTS OF THE UNIVERSITY OF CALIFORNIA, priority 2015, dated 2021)

What was measured:
Src kinase = Src kinase (UniProt P00523); assay: In vitro Src kinase assay (30-min); assay type: biochemical; details: percent activity vs. DMSO control
Procedure: In vitro Kinase Assays. In vitro kinase assays with the HER2 kinase domain (SignalChem) were performed in triplicate as follows. To 9 μL of a 2.5× solution of kinase and substrate in reaction buffer was added 3 μL of a 5×DMSO or inhibitor dilution in 10% DMSO:water. The inhibitor/kinase solution was incubated at room temperature for 10 minutes. The kinase assay was initiated by the addition of 3 μL of a 5× solution of ATP, and ran for 15 minutes. The final reaction conditions were 50 mM Tris (pH7.4), 5 mM MnCl2, 0.01% Tween-20, 2 mM DTT, 100 μM E4Y substrate (SignalChem), 15 nM HER2, 2% DMSO, 50 μM ATP, and 1 μCi γ^32P-ATP. After 15 minutes, 3 μL of each reaction was pipetted onto phosphocellulose sheets (P81, Whatman) and allowed to dry. The sheets were then washed 4×5 min with a solution of 0.5% phosphoric acid, dried, and exposed to a phosphor screen overnight. Src Kinase assays were conducted as previously described^2. Phosphorimaging was conducted on a Typhoon 9500, image intensities were quantified in ImageQuant 5.2, normalized to the DMSO control and plotted in GraphPad Prism 6.

HER3 TKD = biological target: T1, HER3 TKD (Homo sapiens, UniProt P21860); assay: HER3 TKD Thermofluor assay; assay type: binding; details: 20 μM inhibitor, 2 μM kinase, vs DMSO
T1 construct: made in house
T1 sequence (P21860 709-966 limits assumed): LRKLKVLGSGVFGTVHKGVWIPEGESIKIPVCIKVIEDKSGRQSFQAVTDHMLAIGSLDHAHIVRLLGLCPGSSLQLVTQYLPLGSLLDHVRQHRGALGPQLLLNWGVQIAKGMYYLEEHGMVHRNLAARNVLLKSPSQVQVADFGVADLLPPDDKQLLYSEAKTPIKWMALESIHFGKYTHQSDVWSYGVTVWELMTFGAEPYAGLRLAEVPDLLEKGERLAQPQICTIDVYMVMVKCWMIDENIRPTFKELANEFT
Procedure: HER3 Thermofluor Assay. Wt HER3 TKD was purified according to the previously published protocol^1. Thermofluor reactions were performed in duplicate and set up as follows. 1 μL of an inhibitor or DMSO dilution in 40% DMSO:water was added to 19 μL of the HER3 kinase domain in reaction buffer. The final reaction solution contained 100 mM MOPS, 200 mM NaCl, 5% glycerol, 5 mM MgCl2, 0.1 mM DTT, 5×SYPRO Orange, 2 μM kinase, 2% DMSO and 20 μM inhibitor in the wells of a 96-well, low profile, white, PCR plate (USA scientific). The solution was pipetted up and down to mix, sealed with TempAssure clear PCR flat caps (USA Scientific), centrifuged at 500×g for 30 s, and heated in a Stratagene Mx3005P RT-PCR machine from 25° C. to 95° C. in 0.5° C. increments every 30 s after an initial incubation at 25° C. for 10 min. Fluorescence was measured at the end of each 30 s period with an excitation wavelength of 492 nm and an emission wavelength of 610 nm. To obtain the melting temperature, fluorescent signals were normalized to the maximum fluorescent signal for that well. Values after the well had reached a maximum signal were discarded and the signals were fit to the Boltzmann equation in Graphpad Prism 6. ΔTm was calculated as the difference in melting temperature between the compound-treated kinase compared to the DMSO control.

| Structure (SMILES) | IC50 (Src kinase) [nM] | binding to HER3 TKD (percent unfolded protein vs. temperature) (HER3 TKD) |
| --- | --- | --- |
| COc1cc2ncc(C#N)c(Nc3ccc(Oc4cccc(NC(=O)Nc5cccc(C(F)(F)F)c5)c4)cc3)c2cc1OC [50A, 1-(3-(4-((3-cyano-6,7-dimethoxyquinolin-4-yl)amino)phenoxy)phenyl)-3-(3-(trifluoromethyl)phenyl)urea] | 3.3 | particularly tight binding |
| COc1cc(Nc2c(C#N)cnc3cc(OCCCN4CCN(C)CC4)c(OC)cc23)c(Cl)cc1Cl [bosutinib, reference compound] | 3.3 | – |
